The text below walks through data of patent publication US4436752A, “Treatment of gastric and gastro-duodenal disorders with derivatives of phenyl aliphatic carboxylic acids” (Roussel Uclaf, priority 1981, dated 1984).

The LD50 is the dose expected to kill half of the subjects tested. A high value points to a less toxic substance.

Series [1] concerns ulcers in rats at the level of the stomach. As to the kind of experiment: Determination of the anti-ulcer activity (SHAY's technique, ulcers induced by ligature of the pylorus). It is filed as in vivo. Particulars: rat, per os, about 16 hours after treatment. The text has this: (1) Determination of the anti-ulcer activity
The technique used is described by SHAY et al. in Gastroenterology, 5, 43 (1945).
SHAY's technique consists of inducing ulcers in rats at the level of the stomach by ligature of the pylorus.
The animals are anesthetized with ether. A longitudinal incision is made about 1 cm below the sternum, the glandular portion of the stomach and the duodenum are uncovered and a ligature is placed a few millimeters below the pylorus. The muscular plane is left as is and the skin is sutured by two clips.
The animals then immediately receive the dispersive or the substance to be studied per os in a volume of 0.5 ml/100 g, and are kept without food or drink until sacrificed by carotid section, effected about 16 hours after the treatment.
Before removing the stomach, a ligature is placed above the cardia.
The gastric fluid is collected in order to measure its pH.
The stomach is then opened along the greater curvature, rinsed in physiological serum and spread on graph paper in order to be examined under a binocular lens.
The severity of the lesions, graded from 0 to 4 for each stomach, is then evaluated macroscopically.
The average intensity of the ulcerations is determined for each lot of rats and the protection is calculated as the ratio of the mean index for the treated group to the mean index for the control group.
The pH of the gastric fluid is also determined for the treated animals and the control animals.

Series [2] can be described thus: Determination of acute toxicity (LD50, oral route). The settings on record: mouse, in vivo, mice. As to the method: (2) Determination of acute toxicity
The lethal dose LD50 of the derivatives of Examples 1 and 2 was evaluated after administration by oral route to mice.

SMILES strings stand for the structures.

Turning to `COc1ccc(C(=O)CC(O)C(=O)O)c(OC)c1OC` (stereo not shown) [Example 1, 4-(2,3,4-trimethoxyphenyl)-4-oxo-2-hydroxy butanoic acid], the “Ulceration % protection, with respect to the controls” value in series [1] (100 mg/kg) is 41%. In addition, in series [1] (100 mg/kg, control animals 2.7), the “pH of the gastric fluid, treated animals” value worked out at 3.3. The molecule also gave a 50% lethal dose (LD50) in series [2] of more than 1000 mg/kg.
For the molecule `COc1ccc(C(=O)/C=C/C(=O)O)c(OC)c1OC` [Example 2, (E) 4-(2,3,4-trimethoxyphenyl)-4-oxo-2-butenoic acid], the “Ulceration % protection, with respect to the controls” value turned out to be 17% in series [1] (0.8 mg/kg), 76% in series [1] (4 mg/kg) and 99% in series [1] (20 mg/kg). Moreover, the “pH of the gastric fluid, treated animals” value in series [1] (0.8 mg/kg, control animals 3.5) amounted to 3.1; in series [1] (4 mg/kg, control animals 3.2), 3.7; in series [1] (20 mg/kg, control animals 3.2), 5.8. Besides, the LD50 in series [2] is approximately 300 mg/kg.
